Laboratory results reported in US6962921B2, “Dementia remedies containing 2-aryl-8-oxodihydropurine derivatives as the active ingredient” (Dainippon Pharmaceutical Co., Ltd., priority 2000, dated 2005).

What was measured:
[1] = test system: animal models of learning impairment; conditions: active avoidance test, radial-arm maze test, water maze test; cited from earlier work
[2] = test system: MK-801-induced object location memory impairment; assay: Ameliorating effect on the impairment of object location memory induced by MK-801 (object location memory test); format: in vivo, mice; conditions: oral; for MED (minimum effective dose), significant ameliorating effect on MK-801-induced object location memory impairment: Std-ddY male mice, 30 minutes before MK-801 0.05 mg/kg s.c., 5% significance level; for effective dose relative to the dose of FGIN-1-27: MK-801-induced object location memory impairment, mice
Text: Experiment 3: Ameliorating Effect on the Impairment of Object Location Memory Induced by MK-801.
The object location memory test is a test method using the property which animals like to search a novelty caused by the change of an object location. This method is often used in order to study the ability of object location memory. This method is closely related with hypofunction of glutamatergic system and cause the location memory impairment selectively without the impairment of object memory which is induced by hypofunction of cholinergic system.
This experiment was carried out according to the partially modified method of Sophie L. Dix, et al. [Behav. Brain Res., 99, 191-200 (1999)].
Std-ddY male mice weighing 25-30 g (six mice per one group) were used in the experiment. A solution of MK-801 in physiological saline (concentration: 0.005 mg/ml) was subcutaneously administered in a volume of 0.1 ml per 10 g of body weight, i.e., 0.05 mg/kg. For the test compound group, the test compound suspended in 0.5% tragacanth solution was orally administered in a volume of 0.1 ml per 10 g of body weight, 30 minutes before MK-801 administration, and for the amnesia control group and the vehicle control group, a 0.5% tragacanth solution was administered in the same manner as above. However, for the vehicle control group, physiological saline was administered instead of MK-801. Thirty minutes after the administration of MK-801, the first trial was carried out for 5 minutes, and 1 hour after the first trial, the second trial was carried out for 5 minutes. In the first trial, the two same-shaped objects [red frustum-formed funnel adaptors made of silicon (bottom diameter: 6.1 cm, ceiling diameter: 4.5 cm, height: 3.5 cm)] were respectively put in the center and one of the corners of the test box made of brown acrylic (length: 22.5 cm, width 24.5 cm, height: 11 cm), and the time which the mouse explored each object was measured. In the second trial, the object (displaced object: DO) which was located in the center in the first trial was displaced in the opposite corner to another object (non displaced object: NDO), and then the time which the mouse explored each object was measured. The difference in the exploration time of DO and NDO respectively between the first trial and the second trial was calculated, and the comparison between the vehicle control group and the amnesia control group, and between the amnesia control group and the test compound group was carried out.
In statistical analysis, the comparison between the vehicle control group and the amnesia control group was carried out by the Student's t test and it was confirmed whether a significant object location memory impairment was induced. The efficacy of the test compounds was evaluated by comparing the amnesia control group with the test compound group using the parametric Dunnett's multiple comparison test. The statistical calculation was carried out with SAS system Version 6.12 (SAS Institute Japan Ltd.).
Besides, in the vehicle control group, the exploration time for NDO in the second trial decreased and the exploration time for DO was obviously longer than that for NDO. […] On the other hand, in the amnesia control group with MK-801, both exploration time for NDO and DO decreased remarkably.

[3] = test system: scopolamine-induced spatial memory disorder; assay: Ameliorating effect on spatial memory disorder induced by scopolamine (Y-maze, alternation behavior); format: in vivo; conditions: Std-ddY male mice, oral, 1 hour before scopolamine 0.6 mg/kg s.c., 5% significance level
Protocol: Experiment 1: Ameliorating Effect on Spatial Memory Disorder Induced by Scopolamine. The spatial memory test using Y-maze apparatus is a test to utilize the behavioral property of animals to enter into a new arm, avoiding the arm that they entered into just before (alternation behavior). This method is often used in order to study spatial working memory. This experiment was carried out according to the method of Itoh, J., et al. [Eur. J. Pharmacol., 236, 341-345 (1993)]. Std-ddY male mice weighing 25-30 g (8 mice per one group) were used in the experiment. A solution of scopolamine in physiological saline (concentration: 0.06 mg/ml) was subcutaneously administered to mice in a volume of 0.1 ml/10 g of body weight, i.e., 0.6 mg/kg. Mice in the test compound group were orally treated with the test compound suspended in 0.5% tragacanth solution in a volume of 0.1 ml/10 g of body weight 1 hour before scopolamine administration, while animals in the amnesia control group and the vehicle control group received a 0.5% tragacanth solution in the same manner as above. However, the vehicle control group was injected with physiological saline instead of scopolamine. Thirty minutes after administration of scopolamine, the mice were placed at the end of the arm A of the Y-maze apparatus which was composed of three black acrylic trapezoid arms (bottom width: 3 cm, height of side wall: 12 cm, width of opened ceiling: 10 cm, length: 40 cm), wherein said three arms were connected at the one end of each arm to form Y-shape and another ends were closed, and the three arms were differentiated by the names as A, B and C respectively, and allowed to search freely the maze for 8 minutes. When the mouse was checked to enter into an arm at the length of not less than 10 cm from the entrance of the arm, the name of the arm (A, B or C) was recorded. It could be defined as a correct choice when the mouse selected the different three arms sequentially, and the number of alternation behavior i.e., the number of correct choices was counted. In the case that the total number of arm entries was less than 10 [the maximum number of alternation behavior (the number obtained by subtracting 2 from the total number of arm entries) is less than 8], the resulting data were not used and the retest was carried out instead, because the ability of learning could not occasionally reflect the alternation behavior. For the final data gotten, the ratio of the number of the alternation behavior to that of the entries (obtained by subtracting 2 from the total number of arm entries) was estimated as the rate of alternation behavior. In statistical analysis, the rate of alternation behavior in the amnesia control group was compared with that in the vehicle control group by the nonparametric Wilcoxon rank sum test and it was checked if a significant amnesia was induced in the amnesia control group. Next, the efficacy of the test compounds was evaluated in comparison between the amnesia control group and the test compound group by the nonparametric Dunnett multiple comparison test. The statistical calculation was carried out with SAS system Version 6.12 (SAS Institute Japan Ltd.).

[4] = test system: scopolamine-induced object memory impairment; assay: Ameliorating effect on object memory disorder induced by scopolamine (object recognition test); format: in vivo; conditions: Std-ddY male mice, oral; for MED (minimum effective dose), significant difference in the discrimination index, scopolamine-induced object memory impairment: 30 minutes before scopolamine 0.4 mg/kg s.c., 5% significance level
Protocol: Experiment 2: Ameliorating Effect on Object Memory Disorder Induced by Scopolamine. The object recognition test is a test method using the property which animals like to search a novel object. This method is often used in order to study the memorization and retention of episodic memory. This experiment was carried out according to the partially modified method of Bartolini, L. et al. [Pharmacol. Biochem. Behav., 53, 277-283 (1996)]. Std-ddY male mice weighing 25-30 g (six mice per one group) were used in the experiment. Scopolamine dissolved in physiological saline (concentration: 0.04 mg/ml) was subcutaneously administered to mice in a volume of 0.1 ml per 10 g of body weight, i.e., 0.4 mg/kg. For the test compound group, the test compound suspended in 0.5% tragacanth solution was orally administered in a volume of 0.1 ml per 10 g of body weight, 30 minutes before scopolamine administration, and for the amnesia control group and the vehicle control group, a 0.5% tragacanth solution was administered in the same manner as above. However, for the vehicle control group, physiological saline was administered instead of scopolamine. Thirty minutes after the administration of scopolamine, the first trial was carried out for 5 minutes, and 1 hour after the first trial, the second trial was carried out for 5 minutes. In the first trial, the two same-shaped objects [red frustum-formed funnel adaptors made of silicon (bottom diameter: 6.1 cm, ceiling diameter: 4.5 cm, height: 3.5 cm)] are put on the two adjacent corners of the test box made of brown acrylic (length: 22.5 cm, width: 24.5 cm, height: 11 cm), and the time that the mouse explored each object was measured. In the second trial, the object (familiar: F) which the exploration time was longer in the first trial was retained, while another object in the first trial was replaced by the novel object [novel: N, red diver ring (outside diameter: 7.5 cm, inside diameter: 2.5 cm, thickness: 2.0 cm)] at the same position, and then the time for exploring each object was measured. The rate of object memory impairment was obtained from the formula: (N−F)/(N+F) as a discrimination index, and the comparison between the vehicle control group and the amnesia control group, and between the amnesia control group and the test compound group was carried out on the basis of said discrimination index. In statistical analysis, the comparison between the vehicle control group and the amnesia control group was carried out by the Student's t test and it was checked whether a significant amnesia was induced. The efficacy of the test compounds was evaluated on the basis of comparison between the amnesia control group and the test compound group by the parametric Dunnett's multiple comparison test. […]

Std-ddY male mice = assay: Acute toxicity (Experiment 4); format: in vivo; conditions: oral 2000 mg/kg, observed for 7 days
Protocol: Experiment 4: Acute Toxicity
The experiment on the test compound C was carried out using Std-ddY male mice weighing 25-30 g (10 mice per each group).

| Compound | ameliorating effects in animal models of learning impairment [1] | MED (minimum effective dose), significant ameliorating effect on MK-801-induced object location memory impairment [2] | MED (minimum effective dose), significant ameliorating effect on scopolamine-induced spatial memory disorder in the rate of alternation behavior [3] | MED (minimum effective dose), significant difference in the discrimination index, scopolamine-induced object memory impairment [4] | other results |
| --- | --- | --- | --- | --- | --- |
| CCCCCCN(CCCCCC)C(=O)Cc1c(-c2ccc(F)cc2)[nH]c2ccccc12 [FGIN-1-27, N,N-di-n-hexyl-2-(4-fluorophenyl)indol-3-acetamide, reference compound] | weak ameliorating effects | 10 mg/kg | 10 mg/kg | >30 mg/kg | ameliorating effect on scopolamine-induced object memory impairment at a stated dose ([4]; dose of 30 mg/kg): no significant ameliorating effect |
| CCN(C(=O)Cn1c(=O)n(C)c2nc(-c3ccccc3)ncc21)c1ccccc1 [Test Compound C, N-ethyl-8,9-dihydro-9-methyl-8-oxo-2-phenyl-N-phenyl-7H-purin-7-acetamide] | – | 0.1 mg/kg | 0.01 mg/kg | 0.01 mg/kg | effective dose relative to the dose of FGIN-1-27 [2]: less than 1/100; lethality (Std-ddY male mice): no mouse treated with the test compound C died |
| pregnenolone sulfate | weak ameliorating effects | – | – | – | – |
| COc1ccc(N(C)C(=O)Cn2c(=O)n(C)c3cnc(-c4ccccc4)nc32)cc1 [Test Compound A, N-(4-methoxyphenyl)-7,8-dihydro-7-methyl-N-methyl-8-oxo-2-phenyl-9H-purin-9-acetamide] | – | – | 3 mg/kg | – | – |
| CC(=O)[C@H]1CC[C@H]2[C@@H]3CC[C@H]4C[C@H](O)CC[C@]4(C)[C@H]3CC[C@]12C [allopregnanolone] | weak ameliorating effects | – | – | – | – |
| CCN(Cc1ccccc1)C(=O)Cn1c(=O)n(C)c2nc(-c3ccccc3)ncc21 [Test Compound B, N-benzyl-N-ethyl-8,9-dihydro-9-methyl-8-oxo-2-phenyl-7H-purin-7-acetamide] | – | – | 3 mg/kg | – | – |
| CCN(Cc1ccccc1)C(=O)Cn1c(=O)n(CC)c2cnc(-c3ccccc3)nc21 [Test Compound D, N-benzyl-7-ethyl-N-ethyl-7,8-dihydro-8-oxo-2-phenyl-9H-purin-9-acetamide] | – | – | 3 mg/kg | – | – |
| CCN(Cc1ccccc1)C(=O)Cn1c(=O)n(C)c2cnc(-c3ccccc3)nc21 [Test Compound E, N-benzyl-N-ethyl-7,8-dihydro-7-methyl-8-oxo-2-phenyl-9H-purin-9-acetamide] | – | 0.01 mg/kg | 1 mg/kg | 0.1 mg/kg | effective dose relative to the dose of FGIN-1-27 [2]: less than 1/100 |
